According to patent publication US9682976B2, “Protein kinase C inhibitors and uses thereof” (Rigel Pharmaceuticals, Inc., priority 2012, dated 2017):

What follows are compounds tested on PKC mediated IL-2 production (assay: IL-2 ELISA, human primary T cell, anti CD3+CD28+). Conditions: Homo sapiens, T-cell, 24 h, human primary T cells stimulated with αCD3 and αCD28, 24 hours.
Type: cell-based
Summary of the method: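 IL-2 was quantified by ELISA in 24 h supernatants from primary human T cells given a 1 h compound pre-treatment at 37° C. These cells had been expanded from blood mononuclear cells on αCD3/αCD28 with IL-2, and the IL-2 was removed by washing. Stimulation used plate-bound αCD3 ([…]) plus αCD28 (5 μg/ml); the counter assay used PMA (0.5 ng/ml) with ionomycin (0.1 uM) instead.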

Compound | EC50
CC1(C)C[C@H](Nc2nc(Nc3ccc(Cl)c(-n4nnnc4C4CC4)c3)ncc2Cl)C[C@@H]2CCCN21 [Compound 182, 5-chloro-N2-(4-chloro-3-(5-cyclopropyl-1H-tetrazol-1-yl)phenyl)-N4-((7R,8aS)-5,5-dimethyloctahydroindolizin-7-yl)pyrimidine-2,4-diamine] | < 100 nM
CO[C@@H](C)COc1cc(F)c(Nc2ncc(F)c(N(C[C@H](C)OC)[C@@H]3C[C@@H]4CCCN4C(C)(C)C3)n2)cc1-n1nnn(C)c1=O [Compound 234, 1-(5-((4-(((7R,8aS)-5,5-dimethyloctahydroindolizin-7-yl)((S)-2-methoxypropyl)amino)-5-fluoropyrimidin-2-yl)amino)-4-fluoro-2-((S)-2-methoxypropoxy)phenyl)-4-methyl-1,4-dihydro-5H-tetrazol-5-one] | > 10000 nM
Cc1nnnn1-c1cc(Nc2ncc(Cl)c(N[C@@H]3C[C@@H]4CCCN4C(C)(C)C3)n2)ccc1F [Compound 149, 5-chloro-N4-((7R,8aS)-5,5-dimethyloctahydroindolizin-7-yl)-N2-(4-fluoro-3-(5-methyl-1H-tetrazol-1-yl)phenyl)pyrimidine-2,4-diamine] | < 100 nM
CC1(C)Oc2ccc(Nc3ncc(F)c(N[C@H]4C[C@H]5CCCN5C(C)(C)C4)n3)cc2-n2nnnc21 [Compound 102, N2-(4,4-dimethyl-4H-benzo[b]tetrazolo[1,5-d][1,4]oxazin-8-yl)-N4-((7S,8aR)-5,5-dimethyloctahydroindolizin-7-yl)-5-fluoropyrimidine-2,4-diamine] | 100 to 500 nM
CC1(C)Oc2ccc(Nc3ncc(F)c(N[C@@H]4C[C@@H]5CCCN5C(C)(C)C4)n3)cc2-n2c1nn(C1COC1)c2=O [Compound 251, 5-fluoro-N2-(1H-2,4-dihydron-4,4-dimethyl-2-(oxetan-3-yl)[1,2,4]triazolo[3,4-c][1,4]benzoxazin-1-one-8-yl)-N4-((7R,8aS)-octahydro-5,5-dimethylindolizin-7-yl)pyrimidine-2,4-diamine] | 1000 to 10000 nM
CC1(C)C[C@H](Nc2nc(Nc3cc(F)cc(S(F)(F)(F)(F)F)c3)ncc2F)C[C@@H]2CCCN21 [Compound 72] | 500 to 1000 nM
COc1ccc(Nc2ncc(F)c(N[C@@H]3C[C@@H]4CCCN4C(C)(C)C3)n2)cc1-n1nnnc1C [Compound 140, N4-((7R,8aS)-5,5-dimethyloctahydroindolizin-7-yl)-5-fluoro-N2-(4-methoxy-3-(5-methyl-1H-tetrazol-1-yl)phenyl)pyrimidine-2,4-diamine] | < 100 nM
CC(=O)O[C@H]1[C@H](OC(C)=O)C(Oc2ccc(Nc3ncc(F)c(N[C@@H]4C[C@@H]5CCCN5C(C)(C)C4)n3)cc2C#N)OC[C@H]1OC(C)=O (stereo partly drawn) [Compound 197, (3S,4R,5R)-2-(2-cyano-4-((4-(((7R,8aS)-5,5-dimethyloctahydroindolizin-7-yl)amino)-5-fluoropyrimidin-2-yl)amino)phenoxy)tetrahydro-2H-pyran-3,4,5-triyl triacetate] | 100 to 500 nM
CC1(C)Oc2ccc(Nc3ncc(F)c(N[C@@H]4C[C@@H]5CCCN5C(C)(C)C4)n3)cc2O1 [Compound 157, N2-(2,2-dimethylbenzo[d][1,3]dioxol-5-yl)-N4-((7R,8aS)-5,5-dimethyloctahydroindolizin-7-yl)-5-fluoropyrimidine-2,4-diamine] | 1000 to 10000 nM
CC1(C)C[C@H](Nc2nc(Nc3ccc(OCCCO)c(-n4cnnn4)c3)ncc2F)C[C@@H]2CCCN21 [Compound 215, 3-(4-((4-(((7R,8aS)-5,5-dimethyloctahydroindolizin-7-yl)amino)-5-fluoropyrimidin-2-yl)amino)-2-(1H-tetrazol-1-yl)phenoxy)propan-1-ol] | < 100 nM
CC(O)COc1ccc(Nc2ncc(F)c(N[C@@H]3C[C@@H]4CCCN4C(C)(C)C3)n2)cc1-n1cnnn1 (stereo partly drawn) [Compound 206, 1-(4-((4-(((7R,8aS)-5,5-dimethyloctahydroindolizin-7-yl)amino)-5-fluoropyrimidin-2-yl)amino)-2-(1H-tetrazol-1-yl)phenoxy)propan-2-ol] | < 100 nM
CC1(COc2ccc(Nc3ncc(F)c(N[C@@H]4C[C@@H]5CCCN5C(C)(C)C4)n3)cc2C#N)COC1 [Compound 173, 5-(4-((7R,8aS)-5,5-dimethyloctahydroindolizin-7-ylamino)-5-fluoropyrimidin-2-ylamino)-2-((3-methyloxetan-3-yl)methoxy)benzonitrile] | 100 to 500 nM

Further lines, results first:

EC50 | Compound
1000 to 10000 nM | Cn1nnn(-c2cc(Nc3ncc(F)c(N[C@@H]4C[C@@H]5CCC(=O)N5C(C)(C)C4)n3)c(F)cc2C2CC2)c1=O (racemic) [Compound 31, 1-(5-(5-fluoro-4-(hexahydro-5,5-dimethylindolizin-3(5H)-one-7-ylamino)pyrimidin-2-ylamino)-2-cyclopropyl-4-fluorophenyl)-4-methyl-1H-tetrazol-5(4H)-one]
100 to 500 nM | COc1cc(Nc2ncc(F)c(N[C@@H]3C[C@@H]4CCCN4C(C)(C)C3)n2)c(F)c(-n2nnnc2C)c1 [Compound 241, 5-fluoro-N2-(2-fluoro-5-methoxy-3-(5-methyl-1H-tetrazol-1-yl)phenyl)-N4-((7R,8aS)-octahydro-5,5-dimethylindolizin-7-yl)pyrimidine-2,4-diamine]
500 to 1000 nM | COCC1(COC)Oc2ccc(Nc3ncc(F)c(N[C@@H]4C[C@@H]5CCCN5C(C)(C)C4)n3)cc2-n2c1nn(C)c2=O [Compound 296, 5-fluoro-N2-(1H-2,4-dihydron-2-methyl-4,4-di(methoxymethyl)[1,2,4]triazolo[3,4-c][1,4]benzoxazin-1-one-8-yl)-N4-((7R,8aS)-octahydro-5,5-dimethylindolizin-7-yl)pyrimidine-2,4-diamine]
< 100 nM | Cc1ccc(Nc2ncc(F)c(N[C@@H]3C[C@@H]4CCCN4C(C)(C)C3)n2)cc1-n1nnn(C)c1=O [Compound 273, 1-(5-(4-((7R,8aS)-octahydro-5,5-dimethylindolizin-7-ylamino)-5-fluoropyrimidin-2-ylamino)-2-methylphenyl)-4-methyl-1H-tetrazol-5(4H)-one]
1000 to 10000 nM | Cn1nnn(-c2cc(Nc3ncc(F)c(NC4CCN5CCCC5C4)n3)c(F)cc2C2CC2)c1=O (racemic) [Compound 27, (±)-1-(5-(5-fluoro-4-(octahydroindolizin-7-ylamino)pyrimidin-2-ylamino)-2-cyclopropyl-4-fluorophenyl)-4-methyl-1H-tetrazol-5(4H)one]
100 to 500 nM | CC1(C)C[C@H](Nc2nc(Nc3cccc(-n4nnn(CCO)c4=O)c3)ncc2F)C[C@@H]2CCCN21 [Compound 267, 1-(3-(4-((7R,8aS)-octahydro-5,5-dimethylindolizin-7-ylamino)-5-fluoropyrimidin-2-ylamino)phenyl)-4-(2-hydroxyethyl)-1H-tetrazol-5(4H)-one]
< 100 nM | Cc1nnnn1-c1ccc(F)c(Nc2ncc(F)c(N[C@@H]3C[C@@H]4CCCN4C(C)(C)C3)n2)c1 [Compound 142, N4-((7R,8aS)-5,5-dimethyloctahydroindolizin-7-yl)-5-fluoro-N2-(2-fluoro-5-(5-methyl-1H-tetrazol-1-yl)phenyl)pyrimidine-2,4-diamine]
500 to 1000 nM | CC1(C)C[C@H](Nc2nc(Nc3cc(-n4cnnn4)c(C4CC4)cc3F)ncc2F)C[C@@H]2CC(F)(F)CN21 [Compound 46, N^2-(4-cyclopropyl-2-fluoro-5-(1H-tetrazol-1-yl)phenyl)-5-fluoro-N^4-((7R,8aR)-2,2-difluoro-octahydro-5,5-dimethylindolizin-7-yl)pyrimidine-2,4-diamine]
100 to 500 nM | Cn1nnn(-c2cc(Nc3ncc(F)c(N[C@@H]4C[C@@H]5CCCN5C(C)(C)C4)n3)c(F)cc2OCC(N)=O)c1=O [Compound 322, 2-(4-(4-((7R,8aS)-octahydro-5,5-dimethylindolizin-7-ylamino)-5-fluoropyrimidin-2-ylamino)-5-fluoro-2-(4,5-dihydro-4-methyl-5-oxotetrazol-1-yl)phenoxy)acetamide]
1000 to 10000 nM | Cn1nnn(-c2cc(Nc3ncc(F)c(N[C@@H]4C[C@@H]5CCCN5C(C)(C)C4)n3)ccc2N2CCN(C3COC3)CC2)c1=O [Compound 117, 1-(5-((4-(((7R,8aS)-5,5-dimethyloctahydroindolizin-7-yl)amino)-5-fluoropyrimidin-2-yl)amino)-2-(4-(oxetan-3-yl)piperazin-1-yl)phenyl)-4-methyl-1,4-dihydro-5H-tetrazol-5-one]

Same assay, conditions: T-cell, human primary T cells stimulated with αCD3 and αCD28, 24 hours

Compound | EC50
[2H]C([2H])(O)C([2H])([2H])Oc1cc(F)c(Nc2ncc(F)c(N[C@@H]3C[C@@H]4CCCN4C(C)(C)C3)n2)cc1-n1nnn(C)c1=O [Compound 221, 1-(5-((4-(((7R,8aS)-5,5-dimethyloctahydroindolizin-7-yl)amino)-5-fluoropyrimidin-2-yl)amino)-4-fluoro-2-(2-hydroxyethoxy-1,1,2,2-d4)phenyl)-4-methyl-1,4-dihydro-5H-tetrazol-5-one] | < 100 nM

Same assay, conditions: human primary T cells stimulated with αCD3 and αCD28, 24 hours

EC50 | Compound
1000 to 10000 nM | Cn1nnn(-c2cc(Nc3ncc(F)c(NC4CCN5C(CCC5(C)C)C4)n3)c(F)cc2C2CC2)c1=O (single isomer, unassigned) [Compound 35, 1-(5-(5-fluoro-4-(octahydro-3,3-dimethylindolizin-7-ylamino)pyrimidin-2-ylamino)-2-cyclopropyl-4-fluorophenyl)-4-methyl-1H-tetrazol-5(4H)-one]
100 to 500 nM | CC1(C)CC(Nc2nc(Nc3cc(-n4cnnn4)c(C4CC4)cc3F)ncc2F)CC2CCCN21 (single isomer, unassigned) [Compound 55, N^2-(4-cyclopropyl-2-fluoro-5-(1H-tetrazol-1-yl)phenyl)-5-fluoro-N^4-(octahydro-5,5-dimethylindolizin-7-yl)pyrimidine-2,4-diamine]
100 to 500 nM | CC1(C)Oc2c(F)cc(Nc3ncc(F)c(NC4CC5CCCN5C(C)(C)C4)n3)cc2-n2nnnc21 (stereo not shown) [Compound 5]
1000 to 10000 nM | Cn1nnn(-c2cc(Nc3ncc(F)c(NC4CCN5CCCC5C4)n3)c(F)cc2C2CC2)c1=O (stereo not shown) [Compound 29]
100 to 500 nM | CC(=O)N(C)c1cc(Nc2ncc(F)c(NC3CC(C)(C)N4CCCC4C3C)n2)c(F)cc1C1CC1 (stereo not shown) [Compound 73]
